Measured values reported in patent US6512000B1, “Aminocarbonyl-substituted benzimidazoles having tryptase-inhibitory activity” (Boehringer Ingelheim Pharma KG, priority 1999, dated 2003).

Target: T1, rh beta tryptase (Homo sapiens, UniProt P20231)
T1 construct: purchased Promega
Experiment: Tryptase inhibition test (cleavage of N-p-tosyl-Gly-Pro-Lys-para-nitroaniline, p-nitroaniline measured at 405 nm)
Assay type: biochemical
Conditions: pH 7.4, 37° C.; for inhibition at 10 µM / % Inhibition (10 μM): inhibition of rh beta tryptase at 10 μM test substance, substrate N-p-tosyl-Gly-Pro-Lys-para-nitroaniline 0.6 mM, 5 minutes; for IC50: concentration at which 50% of the tryptase enzyme activity is inhibited, substrate 0.6 mM
Outline: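 Recombinant human beta tryptase (0.91 U/ml) in 100 mM Tris HCl pH 7.4 with 5 mM calcium and 100 mg/ml heparin; compounds pre-incubated 5 min, then 0.6 mM tosyl-Gly-Pro-Lys-pNA added, 5 min at 37 °C. p-Nitroaniline read at 405 nm; % inhibition at 10 μM, IC50 determined when inhibition exceeded 70%.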

T1 sequence (P20231 31-275): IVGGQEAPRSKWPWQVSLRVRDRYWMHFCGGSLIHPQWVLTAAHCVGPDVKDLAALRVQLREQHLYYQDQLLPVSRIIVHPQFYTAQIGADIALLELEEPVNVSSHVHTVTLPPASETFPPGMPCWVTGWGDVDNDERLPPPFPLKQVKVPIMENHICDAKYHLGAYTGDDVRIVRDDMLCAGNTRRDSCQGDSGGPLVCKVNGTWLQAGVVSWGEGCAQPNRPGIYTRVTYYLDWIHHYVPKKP

Row | SMILES | inhibition at 10 µM [%] | % Inhibition (10 μM) [%] | IC50 [nM]
1 | Cc1ccc(Cn2c(CCc3ccc(C(=N)N)cc3)nc3cc(C(=O)N(CCCc4ccccc4)Cc4ccc(CN)cc4)ccc32)cc1 [Example 173, 2-[2-(4-amidinophenyl)ethyl]-1-(4-methylbenzyl)-benzimidazol-5-yl-carboxylic acid-N-[4-(amino-methyl)-benzyl]-N-(3-phenylpropyl)-amide] | 51 | – | –
2 | N=C(N)c1ccc(CCc2nc3cc(C(=O)N(CCCc4ccccc4)Cc4ccc(CN)cc4)ccc3n2CCCN2CCOCC2)cc1 [Example 177, 2-[2-(4-amidinophenyl)ethyl]-1-[3-(morpholin-4-yl)-propyl]-benzimidazol-5-yl-carboxylic acid-N-[4-(amino-methyl)-benzyl]-N-(3-phenylpropyl)-amide] | 68 | – | –
3 | N=C(N)c1ccc(CCc2nc3cc(C(=O)N(CCCc4ccccc4)Cc4ccc(CN)cc4)ccc3n2CC2CCCO2)cc1 (centres unmarked) [Example 178, 2-[2-(4-amidinophenyl)ethyl]-1-(tetrahydrofuran-2-yl-methyl)-benzimidazol-5-yl-carboxylic acid-N-[4-(amino-methyl)-benzyl]-N-(3-phenylpropyl)-amide] | 51 | – | –
4 | CCOCCCn1c(CCc2ccc(C(=N)N)cc2)nc2cc(C(=O)N(Cc3ccc(Cl)cc3)Cc3ccc(CN)cc3)ccc21 [Example 182, 2-[2-(4-amidinophenyl)ethyl]-1-(3-ethoxypropyl)-benzimidazol-5-yl-carboxylic acid-N-[4-(amino-methyl)-benzyl]-N-(4-chlorbenzyl)-amide] | – | 67 | –
5 | CCCCN(CCCC)CCCn1c(CCc2ccc(C(=N)N)cc2)nc2cc(C(=O)N(Cc3ccc(Cl)cc3)Cc3ccc(CN)cc3)ccc21 [Example 183, 2-[2-(4-amidinophenyl)ethyl]-1-(3-di-n-butylaminopropyl)-benzimidazol-5-yl-carboxylic acid-N-[4-(amino-methyl)-benzyl]-N-(4 chlorbenzyl)-amide] | – | 56 | –
6 | N=C(N)c1ccc(CCc2nc3cc(C(=O)N(Cc4ccc(Cl)cc4)Cc4ccc(CN)cc4)ccc3n2CCCNC(=O)Cc2ccccc2)cc1 [Example 184, 2-[2-(4-amidinophenyl)ethyl]-1-[3-(benzylcarbonylamino)-propyl]-benzimidazol-5-yl-carboxylic acid-N-[4-(amino-methyl)-benzyl]-N-(4-chlorbenzyl)-amide] | – | 72 | –
7 | N=C(N)c1ccc(CCc2nc3cc(C(=O)N(Cc4ccc(Cl)cc4)Cc4ccc(CN)cc4)ccc3n2CC2CC2)cc1 [Example 186, 2-[2-(4-amidinophenyl)ethyl]-1-cyclopropylmethyl-benzimidazol-5-yl-carboxylic acid-N-[4-(amino-methyl)-benzyl]-N-(4-chlorbenzyl)-amide] | – | 60 | –
8 | N=C(N)c1ccc(CCc2nc3cc(C(=O)N(Cc4ccc(Cl)cc4)Cc4ccc(CN)cc4)ccc3n2CCc2ccccc2)cc1 [Example 187, 2-[2-(4-amidinophenyl)ethyl]-1-(2-phenylethyl)-benzimidazol-5-yl-carboxylic acid-N-[4-(amino-methyl)-benzyl]-N-(4-chlorbenzyl)-amide] | – | 63 | –
9 | N=C(N)c1ccc(CCc2nc3cc(C(=O)N(Cc4ccc(Cl)cc4)Cc4ccc(CN)cc4)ccc3n2CCCN2CCOCC2)cc1 [Example 193, 2-[2-(4-amidinophenyl)ethyl]-1-[3-(morpholin-4-yl)-propyl]-benzimidazol-5-yl-carboxylic acid-N-[4-(amino-methyl)-benzyl]-N-(4-chlorbenzyl)-amide] | – | 59 | –
10 | N=C(N)c1ccc(CCc2nc3cc(C(=O)N(Cc4ccc(Cl)cc4)Cc4ccc(CN)cc4)ccc3n2CC2CCCO2)cc1 (centres unmarked) [Example 194, 2-[2-(4-amidinophenyl)ethyl]-1-(tetrahydrofuran-2-yl-methyl)-benzimidazol-5-yl-carboxylic acid-N-[4-(amino-methyl)-benzyl]-N-(4-chlorbenzyl)-amide] | – | 61 | –
11 | CCOCCCn1c(CCc2ccc(C(=N)N)cc2)nc2cc(C(=O)N(Cc3ccc(CN)cc3)Cc3cccc(C(F)(F)F)c3)ccc21 [Example 198, 2-[2-(4-amidinophenyl)ethyl]-1-(3-ethoxypropyl)-benzimidazol-5-yl-carboxylic acid-N-[4-(amino-methyl)-benzyl]-N-(3-trifluoromethylbenzyl)-amide] | 63 | – | 458
12 | N=C(N)c1ccc(CCc2nc3cc(C(=O)N(Cc4ccc(CN)cc4)Cc4cccc(C(F)(F)F)c4)ccc3n2CCCNC(=O)Cc2ccccc2)cc1 [Example 200, 2-[2-(4-amidinophenyl)ethyl]-1-[3-(benzylcarbonylamino)-propyl]-benzimidazol-5-yl-carboxylic acid-N-[4-(amino-methyl)-benzyl]-N-(3-trifluoromethylbenzyl)-amide] | 69 | – | –
13 | N=C(N)c1ccc(CCc2nc3cc(C(=O)N(Cc4ccc(CN)cc4)Cc4cccc(C(F)(F)F)c4)ccc3n2CC2CC2)cc1 [Example 202, 2-[2-(4-amidinophenyl)ethyl]-1-cyclopropylmethyl-benzimidazol-5-yl-carboxylic acid-N-[4-(amino-methyl)-benzyl]-N-(3-trifluoromethylbenzyl)-amide] | 58 | – | 822
14 | N=C(N)c1ccc(CCc2nc3cc(C(=O)N(Cc4ccc(CN)cc4)Cc4cccc(C(F)(F)F)c4)ccc3n2CCc2ccccc2)cc1 [Example 203, 2-[2-(4-amidinophenyl)ethyl]-1-(2-phenylethyl)-benzimidazol-5-yl-carboxylic acid-N-[4-(amino-methyl)-benzyl]-N-(3-trifluoromethylbenzyl)-amide] | 53 | – | –
15 | N=C(N)c1ccc(CCc2nc3cc(C(=O)N(Cc4ccc(CN)cc4)Cc4cccc(C(F)(F)F)c4)ccc3n2CCCN2CCOCC2)cc1 [Example 209, 2-[2-(4-amidinophenyl)ethyl]-1-[3-(morpholin-4-yl)-propyl]-benzimidazol-5-yl-carboxylic acid-N-[4-(amino-methyl)-benzyl]-N-(3-trifluoromethylbenzyl)-amide] | 61 | – | –
16 | N=C(N)c1ccc(CCc2nc3cc(C(=O)N(Cc4ccc(CN)cc4)Cc4cccc(C(F)(F)F)c4)ccc3n2CC2CCCO2)cc1 (centres unmarked) [Example 210, 2-[2-(4-amidinophenyl)ethyl]-1 (tetrahydrofuran-2-yl-methyl)-benzimidazol-5-yl-carboxylic acid-N-[4-(amino-methyl)-benzyl]-N-(3-trifluoromethylbenzyl)-amide] | 59 | – | –
17 | CCOCCCn1c(CCc2ccc(C(=N)N)cc2)nc2cc(C(=O)N(Cc3ccc(CN)cc3)Cc3ccccc3F)ccc21 [Example 214, 2-[2-(4-amidinophenyl)ethyl]-1-(3-ethoxypropyl)-benzimidazol-5-yl-carboxylic acid-N-[4-(amino-methyl)-benzyl]-N-(2-fluorobenzyl)-amide] | 54 | – | 335
18 | N=C(N)c1ccc(CCc2nc3cc(C(=O)N(Cc4ccc(CN)cc4)Cc4ccccc4F)ccc3n2CCCNC(=O)Cc2ccccc2)cc1 [Example 216, 2-[2-(4-amidinophenyl)ethyl]-1-[3-(benzylcarbonylamino)-propyl]-benzimidazol-5-yl-carboxylic acid-N-[4-(amino-methyl)-benzyl]-N-(2-fluorobenzyl)-amide] | 65 | – | –
19 | N=C(N)c1ccc(CCc2nc3cc(C(=O)N(Cc4ccc(CN)cc4)Cc4ccccc4F)ccc3n2CCc2ccccc2)cc1 [Example 219, 2-[2-(4-amidinophenyl)ethyl]-1-(2-phenylethyl)-benzimidazol-5-yl-carboxylic acid-N-[4-(amino-methyl)-benzyl]-N-(2-fluorobenzyl)-amide] | 51 | – | –
20 | N=C(N)c1ccc(CCc2nc3cc(C(=O)N(Cc4ccc(CN)cc4)Cc4ccccc4F)ccc3n2CC2CCCO2)cc1 (centres unmarked) [Example 226, 2-[2-(4-amidinophenyl)ethyl]-1-(tetrahydrofuran-2-yl-methyl)-benzimidazol-5-yl-carboxylic acid-N-[4-(amino-methyl)-benzyl]-N-(2-fluorobenzyl)-amide] | 64 | – | –
21 | CCOCCCn1c(CCc2ccc(C(=N)N)cc2)nc2cc(C(=O)N(Cc3ccc(CN)cc3)Cc3ccc4ccccc4c3)ccc21 [Example 230, 2-[2-(4-amidinophenyl)ethyl]-1-(3-ethoxypropyl)-benzimidazol-5-yl-carboxylic acid-N-[4-(amino-methyl)-benzyl]-N-(2-naphthylmethyl)-amide] | 61 | – | 153
22 | CCCCN(CCCC)CCCn1c(CCc2ccc(C(=N)N)cc2)nc2cc(C(=O)N(Cc3ccc(CN)cc3)Cc3ccc4ccccc4c3)ccc21 [Example 231, 2-[2-(4-amidinophenyl)ethyl]-1-(3-di-n-butylaminopropyl)-benzimidazol-5-yl-carboxylic acid-N-[4-(amino-methyl)-benzyl]-N-(2-naphthylmethyl)-amide] | 54 | – | –
23 | N=C(N)c1ccc(CCc2nc3cc(C(=O)N(Cc4ccc(CN)cc4)Cc4ccc5ccccc5c4)ccc3n2CCCNC(=O)Cc2ccccc2)cc1 [Example 232, 2-[2-(4-amidinophenyl)ethyl]-1-[3-(benzylcarbonylamino)-propyl]-benzimidazol-5-yl-carboxylic acid-N-[4-(amino-methyl)-benzyl]-N-(2-naphthylmethyl)-amide] | 58 | – | –
24 | N=C(N)c1ccc(CCc2nc3cc(C(=O)N(Cc4ccc(CN)cc4)Cc4ccc5ccccc5c4)ccc3n2CCC2CCCCC2)cc1 [Example 233, 2-[2-(4-amidinophenyl)ethyl]-1-(2-cyclohexylethyl)-benzimidazol-5-yl-carboxylic acid-N-[4-(amino-methyl)-benzyl]-N-(2-naphthylmethyl)-amide] | 53 | – | –
25 | N=C(N)c1ccc(CCc2nc3cc(C(=O)N(Cc4ccc(CN)cc4)Cc4ccc5ccccc5c4)ccc3n2CC2CC2)cc1 [Example 234, 2-[2-(4-amidinophenyl)ethyl]-1-cyclopropylmethyl-benzimidazol-5-yl-carboxylic acid-N-[4-(amino-methyl)-benzyl]-N-(2-naphthylmethyl)-amide] | – | – | 760
